ChEMBL document CHEMBL4665863 (Bioorg Med Chem, 2020)
≈ marks a conversion by molar mass, not a printed value.

What was measured:
Format in all cases: functional
[1] = system: Staphylococcus aureus; assay: Antibacterial activity against methicillin-resistant Staphylococcus aureus ATCC43300 incubated for 24 hrs by CLSI-based broth microdilution method
[2] = system: Staphylococcus aureus; assay: Antibacterial activity against Staphylococcus aureus ATCC25923 incubated for 24 hrs by CLSI-based broth microdilution method
[3] = system: Pseudomonas aeruginosa; assay: Antibacterial activity against Pseudomonas aeruginosa ATCC27853 incubated for 24 hrs by CLSI-based broth microdilution method
[4] = system: Bacillus subtilis; assay: Antibacterial activity against Bacillus subtilis ATCC9372 incubated for 24 hrs by CLSI-based broth microdilution method
[5] = system: Staphylococcus aureus; assay: Antibacterial activity against penicillin-resistant Staphylococcus aureus incubated for 24 hrs by CLSI-based broth microdilution method
[6] = system: Escherichia coli; assay: Antibacterial activity against Escherichia coli ATCC25922 incubated for 24 hrs by CLSI-based broth microdilution method; conditions: ATCC 25922
[7] = system: Bacillus pumilus; assay: Antibacterial activity against Bacillus pumilus CMCC63202 incubated for 24 hrs by CLSI-based broth microdilution method

SMILES | MIC [1] [µg/mL] | MIC [2] [µg/mL] | MIC [3] [µg/mL] | MIC [4] [µg/mL] | MIC [5] [µg/mL] | MIC [6] [µg/mL] | MIC [7] [µg/mL]
NC(=O)c1c(F)ccc(OCC2=NOC(c3ccc(F)cc3)C2)c1F (stereo not given) | > 64 | > 64 | > 64 | 16 (≈ 45.7 µM) | > 64 | > 64 | 64 (≈ 183 µM)
NC(=O)c1c(F)ccc(OCC2CC(c3ccc(Cl)c(Cl)c3)=NO2)c1F (stereo not given) | > 64 | > 64 | > 64 | 2 (≈ 4.99 µM) | > 64 | > 64 | > 64
CC(C)c1ccc(C2=NOC(COc3ccc(F)c(C(N)=O)c3F)C2)cc1 (stereo not given) | 4 (≈ 10.7 µM) | 4 (≈ 10.7 µM) | > 64 | ≤ 0.125 | 16 (≈ 42.7 µM) | > 64 | ≤ 0.125
CCCOc1cccc(C2=NOC(COc3ccc(F)c(C(N)=O)c3F)C2)c1 (stereo not given) | 16 (≈ 41 µM) | 16 (≈ 41 µM) | > 64 | 4 (≈ 10.2 µM) | 32 (≈ 82 µM) | > 64 | 2 (≈ 5.12 µM)
NC(=O)c1c(F)ccc(OCC2CC(c3ccco3)=NO2)c1F (stereo not given) | > 64 | > 64 | > 64 | 64 (≈ 199 µM) | > 64 | > 64 | > 64
CCOc1ccc(C2=NOC(COc3ccc(F)c(C(N)=O)c3F)C2)cc1 (stereo not given) | 64 (≈ 170 µM) | 64 (≈ 170 µM) | > 64 | 4 (≈ 10.6 µM) | > 64 | > 64 | 16 (≈ 42.5 µM)
CC(C)c1ccc(C2CC(COc3ccc(F)c(C(N)=O)c3F)=NO2)cc1 (stereo not given) | 64 (≈ 171 µM) | 64 (≈ 171 µM) | > 64 | 4 (≈ 10.7 µM) | > 64 | > 64 | 8 (≈ 21.4 µM)
NC(=O)c1c(F)ccc(OCC2=NOC(c3ccc(Br)cc3)C2)c1F (stereo not given) | 32 (≈ 77.8 µM) | > 64 | > 64 | 8 (≈ 19.5 µM) | > 64 | > 64 | 32 (≈ 77.8 µM)
Cc1cccc(C2CC(COc3ccc(F)c(C(N)=O)c3F)=NO2)c1 (stereo not given) | > 64 | > 64 | > 64 | 64 (≈ 185 µM) | > 64 | > 64 | > 64
NC(=O)c1c(F)ccc(OCC2=NOC(c3ccc(Cl)cc3)C2)c1F (stereo not given) | 32 (≈ 87.3 µM) | 64 (≈ 175 µM) | > 64 | 4 (≈ 10.9 µM) | 64 (≈ 175 µM) | > 64 | 16 (≈ 43.6 µM)
COc1ccc(C2=NOC(COc3ccc(F)c(C(N)=O)c3F)C2)cc1 (stereo not given) | > 64 | > 64 | > 64 | 8 (≈ 22.1 µM) | > 64 | > 64 | 32 (≈ 88.3 µM)
CCCOc1ccc(C2=NOC(COc3ccc(F)c(C(N)=O)c3F)C2)cc1 (stereo not given) | > 64 | > 64 | > 64 | 4 (≈ 10.2 µM) | > 64 | > 64 | 4 (≈ 10.2 µM)
NC(=O)c1c(F)ccc(OCC2CC(c3cccc(Cl)c3)=NO2)c1F (stereo not given) | 32 (≈ 87.3 µM) | 16 (≈ 43.6 µM) | > 64 | 2 (≈ 5.45 µM) | 32 (≈ 87.3 µM) | > 64 | 8 (≈ 21.8 µM)
CCCCCc1ccc(C2=NOC(COc3ccc(F)c(C(N)=O)c3F)C2)cc1 (stereo not given) | > 64 | > 64 | > 64 | 0.5 (≈ 1.24 µM) | > 64 | > 64 | ≤ 0.125
CCc1ccc(C2=NOC(COc3ccc(F)c(C(N)=O)c3F)C2)cc1 (stereo not given) | 8 (≈ 22.2 µM) | 8 (≈ 22.2 µM) | > 64 | 0.5 (≈ 1.39 µM) | 16 (≈ 44.4 µM) | > 64 | 2 (≈ 5.55 µM)
CCOc1cccc(C2CC(COc3ccc(F)c(C(N)=O)c3F)=NO2)c1 (stereo not given) | > 64 | > 64 | > 64 | 64 (≈ 170 µM) | > 64 | > 64 | > 64
NC(=O)c1c(F)ccc(OCC2CC(c3ccc(C4CCCCC4)cc3)=NO2)c1F (stereo not given) | > 64 | > 64 | > 64 | > 64 | > 64 | > 64 | > 64
N#Cc1ccc(C2=NOC(COc3ccc(F)c(C(N)=O)c3F)C2)cc1 (stereo not given) | > 64 | > 64 | > 64 | 32 (≈ 89.6 µM) | > 64 | > 64 | > 64
CCOc1ccc(C2CC(COc3ccc(F)c(C(N)=O)c3F)=NO2)cc1 (stereo not given) | 64 (≈ 170 µM) | > 64 | > 64 | 16 (≈ 42.5 µM) | > 64 | > 64 | 64 (≈ 170 µM)
COc1cccc(C2CC(COc3ccc(F)c(C(N)=O)c3F)=NO2)c1 (stereo not given) | > 64 | > 64 | > 64 | > 64 | > 64 | > 64 | > 64
